{
  "source": "paper PMC12471852",
  "about": "“Design and Synthesis of Marine-Inspired Itampolin A Derivatives to Overcome Chemoresistance in NSCLC via Cholesterol Homeostasis Modulation” (Marine Drugs, 2025)",
  "key": {"PC9/GR cells [1]": {"test_system": "PC9/GR cells", "experiment": "Clonogenic survival / colony formation assay", "format": "cell-based, human", "conditions": "24 h pretreatment, 14 days culture, p < 0.05 vs untreated controls", "description": "(§1) To evaluate the tumor-selective activity of compounds 4l and 4m, dose–response studies were performed on wild-type PC9 and gefitinib-resistant PC9/GR cell lines. […] Subtoxic concentrations of 25, 50, and 75 μM were employed to ensure specificity for drug-resistant phenotypes while preserving normal cell viability. […] To assess long-term proliferative potential, clonogenic survival assays were performed. Cells pretreated with 4l (24 h) were trypsinized to generate single-cell suspensions, plated at 300 cells/well, and cultured for 14 days. […] Cell migration ability was evaluated by the scratch healing assay. […] To evaluate the pro-apoptotic efficacy of 4l, we employed a dual-staining approach using Annexin V-FITC and propidium iodide (PI) for quadrant-specific quantification of programmed cell death. Annexin V binds externalized phosphatidylserine (PS), a hallmark of early apoptosis, while PI permeabilization discriminates late-stage apoptotic or necrotic cells.\nClonogenic Survival: Single-cell suspensions (300 cells/well) were cultured for 14 days. Colonies (>50 cells) were fixed (4% PFA), stained with crystal violet, and counted.\nPC9/GR cells were seeded into 6-well plates at a density of […] and cultured in a 37 °C incubator for 2 weeks. The culture medium was then discarded, and the cells were washed with PBS. […] Finally, the number of cell colonies was counted."}, "[2]": {"test_system": "PC9/GR nude mouse xenografts", "experiment": "PC9/GR nude mouse xenograft tumor growth", "format": "in vivo, BALB/c nude mice", "source_text": "(§2) For many years, the technique of implanting human tumor cell lines into nude mice models has been widely used to predict the anti-cancer effects of targeted anti-cancer drugs. In the nude mouse tumor implantation experiment, we continuously monitored the changes in the mouse body weight after administration. […] At the end of the experiment, after euthanizing the nude mice using the spinal dislocation method, we isolated the tumor tissues, weighed them, and conducted statistical analysis.\n(§3) BALB/c nude mice (n = 12) were subcutaneously injected with PC9/GR cells (1 × 10^7 cells/mouse). When tumors reached 50 mm^3, mice received daily 4l or vehicle (3 weeks). Tumor volume (0.52 × length × width^2) and weight were recorded post-euthanasia."}, "PC9/GR cells [3]": {"test_system": "PC9/GR cells", "experiment": "Annexin V-FITC/PI apoptosis, flow cytometry", "format": "cell-based, human", "conditions": "24 h, vehicle control 5.2%", "description": "as §1\nAnnexin V/PI Apoptosis: 4l treated cells were stained with Annexin VFITC/PI (15 min, dark), analyzed by flow cytometry (Q2/Q3: late/early apoptosis)."}, "[4]": {"experiment": "Body weight / toxicity monitoring in tumor-bearing nude mice", "format": "in vivo, BALB/c nude mice", "source_text": "as §2, §3"}, "[5]": {"test_system": "p38 activation / C/EBPβ expression", "experiment": "Western blot of p38, p-p38 and C/EBPβ", "format": "cell-based, human", "conditions": "PC9/GR", "source_text": "We obtained the gene promoter sequence of TM7SF2 from the NCBI database and utilized online databases JASPAR, UCSC, and hTFtarget to predict potential transcription factors for TM7SF2 (Table S2). […] Some studies indicate that p38 can induce C/EBPβ expression through the activation of p38 MAPK, JNK, or ERK in different experimental environments. We conducted Western blot experiments to detect changes in C/EBPβ expression and p38 protein activation and used ChIP and qPCR to determine whether C/EBPβ can target the TM7SF2 promoter region. […] Furthermore, the strength of this direct binding may be related to intracellular cholesterol levels.\nWestern blot: Proteins extracted with RIPA buffer were quantified (BCA), separated by SDS-PAGE, transferred to PVDF membranes, and probed with antibodies. Signals were detected by ECL."}, "PC9/GR cells [6]": {"test_system": "PC9/GR cells", "experiment": "Transwell migration assay", "format": "cell-based, human", "description": "Cell migration was assessed using Transwell chambers (8.0 µm pore size; Corning, NY, USA). Cells suspended in serum-free medium were seeded into the upper chamber. The lower chamber contained 1 mL of DMEM supplemented with 10% FBS as a chemoattractant. Following 24 h of incubation, non-migrated cells on the upper membrane surface were removed. Migrated cells adherent to the lower membrane surface were fixed, stained with 0.1% crystal violet (Solarbio, China) for 15 min, and imaged. Migrated cells were quantified by counting five random fields per insert under a light microscope (Olympus, Tokyo, Japan)."}, "PC9 cells": {"test_system": "PC9 cells", "experiment": "Intracellular total cholesterol quantification, PC9 cells", "format": "cell-based, human", "conditions": "PC9, 24 h treatment", "description": "Following sample collection, intracellular total cholesterol levels were quantified using a commercial Total Cholesterol (T-CHO) assay kit (Nanjing Jiancheng Bioengineering Institute, Nanjing, China) according to the manufacturer’s protocol. Cells were treated as indicated 24 h prior to analysis. Total cellular protein was extracted, and protein concentration was determined using a bicinchoninic acid (BCA) assay. Protein aliquots were loaded in duplicate into a 96-well microplate. Reagents were added sequentially as specified in the kit instructions. After incubation at 37 °C for 10 min, absorbance was measured at 510 nm using a microplate reader. Total cholesterol content was normalized to cellular protein concentration and expressed as μg cholesterol per mg protein."}, "TM7SF2": {"test_system": "TM7SF2", "experiment": "Transcriptome sequencing, differentially expressed genes", "format": "cell-based, human", "conditions": "4l-treated vs untreated PC9/GR", "source_text": "By comparing PC9/GR treated with the small molecule compound 4l against untreated PC9/GR controls, we identified significant differentially expressed genes (DEGs). […] The results of the GO enrichment analysis further emphasized the significant impact of the small molecule compound 4l on steroid biosynthesis and metabolism in lung cancer cells, with the top five pathways being steroid biosynthesis, steroid metabolism, the metabolism of hydroxylated compounds, steroid biosynthesis, and cholesterol biosynthesis (Figure 4C). […] TM7SF2 has been identified as a critical regulator of cholesterol biosynthesis and steroid metabolism in lung cancer cells, a finding central to overcoming chemoresistance in NSCLC [28]. Thus, we selected TM7SF2 as the target gene for further experiments and investigated the protein expression of TM7SF2 in 4l-treated PC9/GR cells using immunoblotting."}},
  "note": "Entries after “also recorded” stand apart in the source; their conditions may differ.",
  "data": [
    {"smiles": "O=C(NCCc1cc(Br)c(O)c(Br)c1)Nc1ccc(F)cc1", "note": "[4l, 1-(3,5-dibromo-4-hydroxyphenethyl)-3-(4-fluorophenyl)urea]", "values": [
      {"measurement": "colony formation", "setting": "PC9/GR cells [1]", "value": "statistically significant inhibition"},
      {"measurement": "tumor growth inhibition compared to gefitinib-treated group", "setting": "[2]; 200 mg/kg of gefitinib and compound 4l", "value": "stronger inhibitory effect"},
      {"measurement": "in vivo growth of PC9/GR xenografts (tumor volume)", "setting": "[2]; 200 mg/kg, daily, 3 weeks, p < 0.05", "value": "effectively inhibited; also recorded: significant suppression; also recorded: significantly inhibited tumor growth"},
      {"measurement": "excised tumor weight", "setting": "[2]; end of experiment", "value": "consistent with the volume data"},
      {"measurement": "total apoptosis", "setting": "PC9/GR cells [3]; 25 μM", "value": 9.1, "unit": "%"},
      {"measurement": "total apoptosis", "setting": "PC9/GR cells [3]; 50 μM", "value": 13.13, "unit": "%"},
      {"measurement": "total apoptosis", "setting": "PC9/GR cells [3]; 75 μM", "value": 19.53, "unit": "%"},
      {"measurement": "mouse body weight after administration", "setting": "[4]; 200 mg/kg, 21 days", "value": "no significant decrease or fluctuation"},
      {"measurement": "toxicity to nude mice / systemic toxicity", "setting": "[4]; dosage used in the xenograft experiment", "value": "did not have significant toxicity; also recorded: without eliciting systemic toxicity; also recorded: without inducing systemic toxicity"},
      {"measurement": "C/EBPβ expression and p38 activation", "setting": "[5]", "value": "reduce C/EBPβ expression by inhibiting p38 activation"},
      {"measurement": "PC9/GR cell motility (Transwell migration)", "setting": "PC9/GR cells [6]; 25, 50 and 75 μM", "value": "significant suppression"},
      {"measurement": "effect of TM7SF2 overexpression on 4l inhibition of migration, proliferation and invasion", "setting": "PC9/GR cells [6]; TM7SF2-overexpressing PC9/GR cells", "value": "attenuated the inhibitory effects"},
      {"measurement": "intracellular cholesterol levels", "setting": "PC9 cells", "value": "no significant effect"},
      {"measurement": "TM7SF2 gene expression (differentially expressed genes)", "setting": "TM7SF2", "value": "significantly downregulated"}
    ]}
  ]
}
